This is an account of results in US10246466B2, “Diaryl macrocycles as modulators of protein kinases” (TP THERAPEUTICS, INC., priority 2014, dated 2019).

pIC50: −log10 of the molar value. Some results are limits rather than exact numbers.

Holding throughout (format): cell-based
Experiment [1] deals with Colorectal cell line KM12 (harboring endogenous TPM3-TRKA fusion gene). Put plainly: KM12 cell proliferation assay (CellTiter-Glo). The conditions noted are these: Homo sapiens, 72 hours incubation, read-out: KM 12 cell prolif. IC50. The procedure:
Colorectal cell lines KM 12 (harboring endogenous TPM3-TRKA fusion gene) cells were cultured in DMEM medium, supplemented with 10% fetal bovine serum and 100 U/mL of penicillin/streptomycin. 5000 cells were seeded in 384 well white plate for 24 hours before compounds treatment. Cell proliferation was measured using CellTiter-Glo luciferase-based ATP detection assay (Promega) following the manufactures's protocol after 72 hours incubation. IC50 determinations were performed using GraphPad Prism software (GraphPad, Inc., San Diego, Calif.).
Alternatively: Colorectal cell line KM12 (harboring endogenous TPM3-TRKA fusion gene) cells were cultured in DMEM medium, supplemented with 10% fetal bovine serum and 100 U/mL of penicillin/streptomycin. […] 5000 cells were seeded in 384 well white plate for 24 hours before compounds treatment. Cell proliferation was measured using CellTiter-Glo luciferase-based ATP detection assay (Promega) following the manufactures's protocol after 72 hours incubation. IC50 determinations were performed using GraphPad Prism software (GraphPad, Inc., San Diego, Calif.).

Experiment [2] concerns Essential thrombocythemia cell line SET-2 cells (harboring endogenous JAK2 point mutation). Put plainly: SET-2 cell proliferation assay (CellTiter-Glo). The conditions noted are these: Homo sapiens, 72 hours incubation, read-out: SET2 cell proli. IC50.
In experiment [3] the test system is T cell lymphoma Karpas-299 cell line (harboring endogenous NPM-ALK fusion gene). Put plainly: Karpas-299 cell proliferation assay (CellTiter-Glo). The conditions noted are these: Homo sapiens, 72 hours incubation, read-out: Karpas 299 cell proli. IC50.

Consider `O=C1NCCOc2ccc(F)cc2CCc2ccn3ncc1c3n2` [Example 102, 11-fluoro-6,7,13,14-tetrahydro-1,15-ethenopyrazolo[4,3-f][1,4,8]benzoxadiazacyclotridecin-4(5H)-one], for which the pIC50 is 8.92 in experiment [1], 5.61 in experiment [2] and 5.64 in experiment [3].

Take `C[C@H]1CNC(=O)c2cnn3ccc(nc23)N[C@H](CO)c2cc(F)ccc2O1` [Example 111, (7S,13S)-11-fluoro-13-(hydroxymethyl)-7-methyl-6,7,13,14-tetrahydro-1,15-ethenopyrazolo[4,3-f][1,4,8,10]benzoxatriazacyclotridecin-4(5H)-one]: the pIC50 in experiment [1] is 7.12; in experiment [2], 5.70; in experiment [3], 6.48.

Regarding `CN1Cc2cc(F)cnc2OCCNC(=O)c2cnn3ccc1nc23` [Example 61, 11-fluoro-14-methyl-6,7,13,14-tetrahydro-1,15-ethenopyrazolo[4,3-f]pyrido[3,2-1][1,4,8,10]oxatriazacyclotridecin-4(5H)-one], the pIC50 in experiment [1] is 9.22; in experiment [2], 5.43; in experiment [3], 5.41.

Take `[2H]C1([2H])NC(=O)c2cnn3ccc(nc23)N(C)Cc2cc(F)ccc2OC1([2H])[2H]` [Example 87, 11-fluoro-14-methyl(6,6,7,7-^2H4)-6,7,13,14-tetrahydro-1,15-ethenopyrazolo[4,3-f][1,4,8,10]benzoxatriazacyclotridecin-4(5H)-one]: the pIC50 in experiment [1] was 9.52; in experiment [2] it was 5.56; in experiment [3], 5.80.

For the compound `O=C1NCCOc2ccc(F)cc2CN(C2CC2)c2ccn3ncc1c3n2` [Example 46, 14-cyclopropyl-11-fluoro-6,7,13,14-tetrahydro-1,15-ethenopyrazolo[4,3-f][1,4,8,10]benzoxatriazacyclotridecin-4(5H)-one], the pIC50 in experiment [1] is 8.82; in experiment [2], 5.15; in experiment [3] it was 5.15.

Turning to `CC(C)N1Cc2cc(F)cnc2OCCNC(=O)c2cnn3ccc1nc23` [Example 62, 11-fluoro-14-(propan-2-yl)-6,7,13,14-tetrahydro-1,15-ethenopyrazolo[4,3-f]pyrido[3,2-1][1,4,8,10]oxatriazacyclotridecin-4(5H)-one], the pIC50 in experiment [1] was 9.05; in experiment [3], 5.40.

For `O=C1NCCOc2ccc(F)cc2C(CC2CC2)Nc2ccn3ncc1c3n2` (stereo not drawn) [Example 89, 13-(cyclopropylmethyl)-11-fluoro-6,7,13,14-tetrahydro-1,15-ethenopyrazolo[4,3-f][1,4,8,10]benzoxatriazacyclotridecin-4(5H)-one], the pIC50 in experiment [1] is 9.70; in experiment [2], 6.07; in experiment [3], 5.85.

With `O=C1NCCCOc2ccc(F)cc2C(CO)Nc2ccn3ncc1c3n2` (stereo not drawn) [Example 99, 12-fluoro-14-(hydroxymethyl)-5,6,7,8,14,15-hexahydro-4H-1,16-ethenopyrazolo[4,3-g][1,5,9,11]benzoxatriazacyclotetradecin-4-one], the pIC50 in experiment [1] is 8.20; in experiment [2] it was 5.16; in experiment [3], 6.30.

As for `C[C@@H]1COc2ccc(F)cc2CN(C)c2ccn3ncc(c3n2)C(=O)N1` [Example 95, (6R)-11-fluoro-6,14-dimethyl-6,7,13,14-tetrahydro-1,15-ethenopyrazolo[4,3-f][1,4,8,10]benzoxatriazacyclotridecin-4(5H)-one], the results for the pIC50 in experiment [1], in experiment [2] and in experiment [3] were 9.40, 5.57 and 5.39, respectively.

For `C[C@H]1Nc2ccn3ncc(c3n2)C(=O)NCCCOc2ccc(F)cc21` [Example 76-1, (14R)-12-fluoro-14-methyl-5,6,7,8,14,15-hexahydro-4H-1,16-ethenopyrazolo[4,3-g][1,5,9,11]benzoxatriazacyclotetradecin-4-one], the values for the pIC50 in experiment [1], in experiment [2] and in experiment [3] were 8.24, 6.00 and 5.42, respectively.

In the case of `CN1CCC(N2Cc3cc(F)ccc3OCCNC(=O)c3cnn4ccc2nc34)C1` (stereo not drawn) [Example 105, 11-fluoro-14-(1-methylpyrrolidin-3-yl)-6,7,13,14-tetrahydro-1,15-ethenopyrazolo[4,3-f][1,4,8,10]benzoxatriazacyclotridecin-4(5H)-one], the values for the pIC50 in experiment [1], in experiment [2] and in experiment [3] were 6.30, less than 5.00 and less than 5.30, respectively.

Regarding `C[C@H]1COc2ccc(F)cc2[C@@H](C)Nc2ccn3ncc(c3n2)C(=O)N1` [Example 109, (6S,13R)-11-fluoro-6,13-dimethyl-6,7,13,14-tetrahydro-1,15-ethenopyrazolo[4,3-f][1,4,8,10]benzoxatriazacyclotridecin-4(5H)-one], the pIC50 is 9.07 in experiment [1], 6.40 in experiment [2] and 6.65 in experiment [3].

`C[C@@H]1COc2ccc(F)cc2[C@@H](C)Nc2ccn3ncc(c3n2)C(=O)N1` [Example 110, (6R,13R)-11-fluoro-6,13-dimethyl-6,7,13,14-tetrahydro-1,15-ethenopyrazolo[4,3-f][1,4,8,10]benzoxatriazacyclotridecin-4(5H)-one]: the pIC50 in experiment [1] is 9.15; in experiment [2], 6.66; in experiment [3], 6.79.

For the compound `NC(=O)C1Nc2ccn3ncc(c3n2)C(=O)NCCOc2ccc(F)cc21` (stereo not drawn) [Example 60, 11-fluoro-4-oxo-4,5,6,7,13,14-hexahydro-1,15-ethenopyrazolo[4,3-f][1,4,8,10]benzoxatriazacyclotridecine-13-carboxamide], in experiment [1], the pIC50 was less than 6.00.

Consider `CC1Nc2ccn3ncc(c3n2)C(=O)NCCOc2ccc(Cl)cc21` (stereo not drawn) [Example 84, 11-chloro-13-methyl-6,7,13,14-tetrahydro-1,15-ethenopyrazolo[4,3-f][1,4,8,10]benzoxatriazacyclotridecin-4(5H)-one], for which the pIC50 is 9.10 in experiment [1], 5.50 in experiment [2] and 5.38 in experiment [3].

As to `CN1Cc2cc(F)ccc2OCC(O)CNC(=O)c2cnn3ccc1nc23` (stereo not drawn) [Example 96, 12-fluoro-7-hydroxy-15-methyl-5,6,7,8,14,15-hexahydro-4H-1,16-ethenopyrazolo[4,3-g][1,5,9,11]benzoxatriazacyclotetradecin-4-one], the pIC50 in experiment [1] was 9.22; in experiment [2], 5.22; in experiment [3], 5.30.

Take `CC1c2cc(F)ccc2OCCNC(=O)c2cnn3ccc(nc23)N1C` (stereo not drawn) [Example 100, 11-fluoro-13,14-dimethyl-6,7,13,14-tetrahydro-1,15-ethenopyrazolo[4,3-f][1,4,8,10]benzoxatriazacyclotridecin-4(5H)-one]: the pIC50 is 9.22 in experiment [1], 5.23 in experiment [2] and 5.27 in experiment [3].

For `COC(=O)C1Nc2ccn3ncc(c3n2)C(=O)NCCOc2ccc(F)cc21` (stereo not drawn) [Example 59, methyl 11-fluoro-4-oxo-4,5,6,7,13,14-hexahydro-1,15-ethenopyrazolo[4,3-f][1,4,8,10]benzoxatriazacyclotridecine-13-carboxylate], the pIC50 in experiment [1] was less than 6.00.

As for `O=C1NCCOc2ccc(F)cc2C(C2CCC2)Nc2ccn3ncc1c3n2` (stereo not drawn) [Example 86, 13-cyclobutyl-11-fluoro-6,7,13,14-tetrahydro-1,15-ethenopyrazolo[4,3-f][1,4,8,10]benzoxatriazacyclotridecin-4(5H)-one], the pIC50 in experiment [2] was 5.70; in experiment [3], 6.00.
